Data on five molecules can be found in US11939379B2 (The Regents of the University of California, priority 2017, dated 2024).

For one data set, the target named is T1, BCL-xL/ABT-263 complex (Homo sapiens, UniProt Q07817).
T1 construct: C-terminally truncated BCL-xL (residues 2-215) with an N-terminal AviTag; made in house; host or cells: E. coli BL21(DE3), pMCSG7 vector
Kind of data set: Biolayer interferometry, Fab binding to BCL-xL in the presence of ABT-263. The note with it: ABT-263 in place of ABT-737. Here is the method: Biolayer interferometery data were measured using an Octet RED384 instrument (ForteBio). Biotinylated BCL-xL was immobilized on a Streptavidin (SA) biosensor using a 200 nM solution. Serial dilutions of Fabs in kinetics buffer (PBS, pH 7.4, 0.05% Tween-20, 0.2% BSA, 10 μM biotin) with small molecule (1 μM), peptide (5 μM), or vehicle (0.05% DMSO) were used as analyte. Affinity (KD) and kinetic parameters (kon and koff) were calculated from a global fit (1:1) of the data using the Octet RED384 software.
On the technique in general: Biolayer interferometry detects binding as a change in optical thickness at a sensor tip.

Data set [1] concerns scAZ1-VPR and dCas9-BCL-xL in reporter HEK293T cell line containing the Gal4-UAS-Fluc operon. Kind of data set: CRISPRa-mediated luciferase assay (scAZ1 AbCID gene circuit). Format: cell-based. Here is the method: For CRISPRa-mediated transcriptional activation, the reporter HEK293T cell line containing the Gal4-UAS-Fluc operon (Collaboration, O. R, Nat. Methods, 13:191-192 (2016)) was seeded at ˜0.5×10^6 cells/well in 6-well plates and cultured under 5% CO2 at 37° C. overnight. The cells were transfected with a plasmid encoding scAZ1-VPR and another plasmid encoding dCas9-BCL-xL and Gal4 sgRNA at a 1:1 ratio. The transfected cells were trypsinized and resuspended in fresh DMEM supplemented with 10% FBS 24 h after transfection. Cells were then aliquoted into a 96-well poly-D-lysine coated plate (Corning) and allowed to adhere for 24 h before 20 nM ABT-737 was added to induce CRISPRa activity. Cells were then further incubated for 48 h before evaluation of luciferase gene expression. To determine luciferase activity, cells were lysed with Bright-Glo Luciferase Assay substrate (Promega) and analyzed using an Infinite M200 PRO plate reader (Tecan). The luciferase activities were background-subtracted with a negative control (cells expressing full-length dCas9-VPR and PHOX2B negative-sgRNA), and normalized against a positive control (cells expressing full-length dCas9-VPR and Gal4 sgRNA). For investigation of cellular dose response, different concentrations of ABT-737 (0.014 nM, 0.041 nM, 0.12 nM, 0.37 nM, 1.1 nM, 3.3 nM, 10 nM, 30 nM, 90 nM, 270 nM) were added to the cells after cells were transfected and aliquoted to a 96-well plate.

For data set [2], the system named is AbCID CAR (BCL-xL) Jurkat NFAT reporter cells co-cultured with K562 target cells. Kind of data set: Quantification of CAR T-cell activation (NFAT-GFP, CD69, IL-2). Type of data set: cell-based. The conditions noted are these: for NFAT-dependent GFP reporter expression / IL-2 secretion / CD69 expression: antibody 5 nM, 20 hours. Here is the method:
Jurkat cells expressing CARs were mixed with antigen positive (CD19^+) or antigen negative (CD19^−) K562 target cells at a ratio of 1:2. […] After overnight incubation at 37° C., cells were pelleted by centrifugation. NFAT-dependent GFP reporter expression was quantified by flow cytometry using a FACSCanto II (BD Biosciences). CD69 expression was quantified by immunofluorescence flow cytometry using a FACSCanto II (BD Biosciences) using an APC anti-human CD69 Antibody (Biolegend 310910). IL-2 secretion was quantified by collection of supernatants and analysis by ELISA using the BD Human IL-2 ELISA set as per manufacturer's protocol. All flow cytometry data analysis was performed using FlowJo software and all plots were generated using Prism software (GraphPad).

The test system of the next data set is HEK293T cells. Kind of data set: Cellular toxicity of ABT-737, CellTiter-Glo. Type of data set: cell-based. The conditions noted are these: 24 h, viability relative to DMSO, read-out: IC50 (cell death). Here is the method: (§1) W T Jurkat, AbCID CAR Jurkat, Conventional CAR Jurkat, WT K562, CD19^+ K562, and HEK293T cells were plated in 96-well plates at ˜5000 cells per well. Each cell line was incubated with varying concentrations of ABT-737 (10 μM initial, 3-fold serial-dilutions, 8 times) or DMSO alone (0.1%). After 24 h, cell viability was measured using a CellTiter-Glo® Luminescent Cell Viability Assay (Promega) and the manufacturer's standard protocol. The percent viability relative to DMSO treatment was plotted and analyzed for each cell line using Prism software (GraphPad).
Background: Cellular ATP, detected with luciferase, serves as a proxy for viable cell number.

A further data set has as its system Jurkat cells. Kind of data set: Cellular toxicity of ABT-737, CellTiter-Glo. Type of data set: cell-based. The conditions noted are these: 24 h, viability relative to DMSO, read-out: IC50 (cell death). Here is the method: as §1
Another data set relates to K562 cells. Kind of data set: Cellular toxicity of ABT-737, CellTiter-Glo. Type of data set: cell-based. The note with it: K562, 24 h, viability relative to DMSO; read-out: IC50 (cell death). Here is the method: as §1
Another data set relates to platelets. The conditions noted are these: Zhang et al. 2007; cited from earlier work.
The test system of the next data set is mice. The note with it: mouse, in vivo; cited from earlier work.
Data set [3] concerns T cells co-cultured with CD19+ K562 cells. In words: AbCID-regulated inducible bispecific T cell engager, T cell activation. The conditions noted are these: for T-cell activation, CD69 expression / T-cell activation, NFAT signaling (GFP expression): antibody conjugated to anti-CD19, Bcl-2 conjugated to anti-CD3, addition of ABT-199. Format: cell-based. An excerpt:
A representative embodiment of an AbCID-regulated inducible bispecific T cell engager is shown in FIG. 19A, having a first AbCID component conjugated to an anti-CD3 antibody and a second AbCID component conjugated to an antibody that recognizes a tumor specific antigen. Administration of the small molecule dimerizer allows for generation of the CID complex, resulting in recruitment of T cells to cancer cells expressing the tumor specific antigen.

Numbering of substitutions follows the chain as printed. Entries after “also recorded” stand apart in the source; their conditions may differ.

T1 sequence (Q07817 2-215, one chain of several): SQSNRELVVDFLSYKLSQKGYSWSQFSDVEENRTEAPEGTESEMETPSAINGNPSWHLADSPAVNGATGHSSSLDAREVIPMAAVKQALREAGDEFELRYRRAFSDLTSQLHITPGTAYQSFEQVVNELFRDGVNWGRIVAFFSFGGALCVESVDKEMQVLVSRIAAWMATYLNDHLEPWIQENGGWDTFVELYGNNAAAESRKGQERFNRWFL

Take `CC1(C)CCC(c2ccc(Cl)cc2)=C(CN2CCN(c3ccc(C(=O)NS(=O)(=O)c4ccc(N[C@H](CCN5CCOCC5)CSc5ccccc5)c(S(=O)(=O)C(F)(F)F)c4)cc3)CC2)C1` [ABT-263]: at BCL-xL/ABT-263 complex, the “formation of a dimer” value was “does not result in the formation of a dimer”.

One may read the EC50 as the concentration needed to bring the measured effect to its halfway point. For orientation: IC50 means the concentration at which inhibition is half-maximal. As for `CN(C)CC[C@H](CSc1ccccc1)Nc1ccc(S(=O)(=O)NC(=O)c2ccc(N3CCN(Cc4ccccc4-c4ccc(Cl)cc4)CC3)cc2)cc1[N+](=O)[O-]` [ABT-737], in [1], the “concentration range used to induce CRISPRa activity” value is recorded as less than 270 nM. Moreover, the EC50 in data set [1] (48-hour induction, AbCID-gated system, read-out: EC50 of induction of luciferase expression) was 8.9 ± 1 nM. Also, in data set [1] (ABT-737 20 nM, 48 hours, Gal4 sgRNA), the luciferase expression entry is given as “robust expression of luciferase”. In addition, in [1] (AbCID-gated system with a negative sgRNA), the “luciferase expression with a negative sgRNA” value is “no increase in luciferase expression”. For the same molecule, the “concentration range used to induce AbCID CAR activity” value in [2] was less than 100 nM. For the same molecule, the “T-cell activation by ABT-737 on its own” value in [2] (ABT-737 alone) is “not able to induce T-cell activation on its own”. Also, the “NFAT-dependent GFP reporter expression” value in data set [2] (CD19+ K562 target cells) is “dose-dependent activation of the NFAT pathway”; in [2] (CD19− K562 target cells), “not observed; also recorded: no activation was observed”. The IL-2 secretion entry was “dose-dependent secretion of IL-2” in data set [2] (CD19+ K562 target cells, ELISA) and “no secretion was observed” in [2] (CD19− K562 target cells). For the same molecule, the CD69 expression entry is reported as “dose-dependent expression of CD69” in data set [2] (CD19+ K562 target cells, immunofluorescence flow cytometry) and “no expression was observed” in data set [2] (CD19− K562 target cells). Also, the IC50 in the data set with HEK293T cells is roughly 10000 nM; with Jurkat cells it was roughly 2000 nM; in the data set on K562 cells, greater than 10000 nM. Also, the “concentration observed to be toxic to platelets” value in the data set with platelets is “low μM”. In addition, the tolerability in mice result in the data set on mice was “generally well tolerated by mice, except for platelet toxicity”.

B1: AZ34: Fab clone selected against Bcl-2 + ABT-199 complex (antibody)
heavy: EISEVQLVESGGGLVQPGGSLRLSCAASGFNIYYSSMHWVRQAPGKGLEWVASISSYSGSTSYADSVKGRFTISADTSKNTAYLQMNSLRAEDTAVYYCARGGWFWGSGGYSSAFDYWGQGTLVTVSSASTKGPSVFPLAPSSKSTSGGTAALGCLVKDYFPEPVTVSWNSGALTSGVHTFPAVLQSSGLYSLSSVVTVPSSSLGTQTYICNVNHKPSNTKVDKKVEPKSCDKTHTGGSHHHHHH
light: SDIQMTQSPSSLSASVGDRVTITCRASQSVSSAVAWYQQKPGKAPKLLIYSASSLYSGVPSRFSGSRSGTDFTLTISSLQPEDFATYYCQQHHSLITFGQGTKVEIKRTVAAPSVFIFPPSDSQLKSGTASVVCLLNNFYPREAKVQWKVDNALQSGNSQESVTEQDSKDSTYSLSSTLTLSKADYEKHKVYACEVTHQGLSSPVTKSFNRGECGGSDYKDDDDK
B1: in data set [3], the “T-cell activation, CD69 expression” value was “increased expression of CD69” and the “T-cell activation, NFAT signaling (GFP expression)” value (from here on “T-cell activation, NFAT signaling”) is “activation of NFAT signaling”.

B2: AZ21: Fab clone selected against Bcl-2 + ABT-199 complex (antibody)
heavy: EISEVQLVESGGGLVQPGGSLRLSCAASGFNLSYSSMHWVRQAPGKGLEWVASISPYSSYTYYADSVKGRFTISADTSKNTAYLQMNSLRAEDTAVYYCARGYWSFYGMDYWGQGTLVTVSSASTKGPSVFPLAPSSKSTSGGTAALGCLVKDYFPEPVTVSWNSGALTSGVHTFPAVLQSSGLYSLSSVVTVPSSSLGTQTYICNVNHKPSNTKVDKKVEPKSCDKTHTGGSHHHHHH
light: SDIQMTQSPSSLSASVGDRVTITCRASQSVSSAVAWYQQKPGKAPKLLIYSASSLYSGVPSRFSGSRSGTDFTLTISSLQPEDFATYYCQQYYAHYLFTFGQGTKVEIKRTVAAPSVFIFPPSDSQLKSGTASVVCLLNNFYPREAKVQWKVDNALQSGNSQESVTEQDSKDSTYSLSSTLTLSKADYEKHKVYACEVTHQGLSSPVTKSFNRGECGGSDYKDDDDK
For B2, in [3], the “T-cell activation, CD69 expression” value is given as “increased expression of CD69” and the “T-cell activation, NFAT signaling” value is on record as “activation of NFAT signaling”. Further, in [3] (titration of ABT-199), the “level of T-cell activation (NFAT activation) versus ABT-199 concentration” value is listed as “tunable by titration of ABT-199 concentration”.

B3: AZ35: Fab clone selected against Bcl-2 + ABT-199 complex (antibody)
heavy: EISEVQLVESGGGLVQPGGSLRLSCAASGFNLYYSSIHWVRQAPGKGLEWVAYISSYSGYTYYADSVKGRFTISADTSKNTAYLQMNSLRAEDTAVYYCARGGWYWASGSYYGAMDYWGQGTLVTVSSASTKGPSVFPLAPSSKSTSGGTAALGCLVKDYFPEPVTVSWNSGALTSGVHTFPAVLQSSGLYSLSSVVTVPSSSLGTQTYICNVNHKPSNTKVDKKVEPKSCDKTHTGGSHHHHHH
light: B2 light with Y93G, A94Y, H95S, Y96V, F98I
For the molecule B3, in data set [3], the “T-cell activation, CD69 expression” value is given as “increased expression of CD69” and the “T-cell activation, NFAT signaling” value is on record as “activation of NFAT signaling”.
